How the values were obtained:
hFPGS = molecular target: T1, hFPGS (Homo sapiens, UniProt Q05932); assay: LC-MS of reaction products; format: biochemical; conditions: 5 mM analogue, 0.5 mM folate, 5 mM ATP, 10 mM MgCl2, pH 8.5, 37 °C; chain terminator
T1 construct: gene FPGS; ORF in pFastBacHTa, N-terminal His6-tag, Sf9 insect cells
T1 sequence (Q05932 43-587): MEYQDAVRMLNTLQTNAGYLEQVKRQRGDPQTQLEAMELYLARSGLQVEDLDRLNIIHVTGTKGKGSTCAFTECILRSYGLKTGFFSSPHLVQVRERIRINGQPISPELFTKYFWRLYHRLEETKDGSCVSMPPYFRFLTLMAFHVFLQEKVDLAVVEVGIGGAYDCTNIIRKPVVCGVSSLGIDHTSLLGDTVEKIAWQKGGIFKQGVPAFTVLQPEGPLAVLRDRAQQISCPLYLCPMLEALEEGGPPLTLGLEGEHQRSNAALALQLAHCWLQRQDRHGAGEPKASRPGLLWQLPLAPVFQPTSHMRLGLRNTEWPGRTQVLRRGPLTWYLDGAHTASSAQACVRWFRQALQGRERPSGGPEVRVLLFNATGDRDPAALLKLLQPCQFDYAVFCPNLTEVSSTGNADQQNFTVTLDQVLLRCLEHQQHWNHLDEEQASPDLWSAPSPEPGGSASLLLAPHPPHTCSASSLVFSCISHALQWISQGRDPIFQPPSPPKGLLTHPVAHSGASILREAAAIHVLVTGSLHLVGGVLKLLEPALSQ

Af-CofE = molecular target: T2, Af-CofE (Archaeoglobus fulgidus, UniProt O28028); assay: LC-MS of reaction products; format: biochemical; conditions: 2 mM analogue, 50 uM F420-1, 2 mM GTP, 2 mM MgCl2/MnCl2, pH 8.5, 37 °C; chain terminator
T2 construct: codon-optimized ORF in pProEX-HTb, E. coli BL21(DE3) LOBSTR; N-terminal His6-tag removed by rTEV; co-purified flavins washed off with urea/KBr; homodimer
T2 sequence (O28028 whole entry): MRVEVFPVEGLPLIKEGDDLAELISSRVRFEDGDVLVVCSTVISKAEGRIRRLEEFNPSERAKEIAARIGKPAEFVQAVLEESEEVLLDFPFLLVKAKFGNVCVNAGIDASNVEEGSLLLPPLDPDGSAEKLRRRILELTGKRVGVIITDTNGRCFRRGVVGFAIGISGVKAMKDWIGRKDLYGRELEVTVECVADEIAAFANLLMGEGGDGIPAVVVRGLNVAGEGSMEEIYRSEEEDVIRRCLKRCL

Mtb-FPGS = molecular target: T3, Mtb-FPGS (Mycobacterium tuberculosis, UniProt I6Y0R5)
T3 construct: gene folC
T3 sequence (I6Y0R5 whole entry): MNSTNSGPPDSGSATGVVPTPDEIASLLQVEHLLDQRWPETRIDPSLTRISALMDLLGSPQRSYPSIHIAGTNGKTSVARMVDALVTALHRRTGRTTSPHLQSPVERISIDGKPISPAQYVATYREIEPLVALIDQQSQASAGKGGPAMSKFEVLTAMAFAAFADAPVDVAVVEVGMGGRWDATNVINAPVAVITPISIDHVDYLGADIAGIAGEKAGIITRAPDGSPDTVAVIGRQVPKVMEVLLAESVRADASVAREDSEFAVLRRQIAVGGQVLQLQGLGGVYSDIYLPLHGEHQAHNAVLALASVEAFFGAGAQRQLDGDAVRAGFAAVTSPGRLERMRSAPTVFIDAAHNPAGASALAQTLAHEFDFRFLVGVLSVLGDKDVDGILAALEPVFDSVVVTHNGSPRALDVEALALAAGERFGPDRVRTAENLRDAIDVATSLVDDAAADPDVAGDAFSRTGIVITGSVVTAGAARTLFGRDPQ

Mtb-FbiB = Mtb-FbiB (Mycobacterium tuberculosis, UniProt P9WP79)
Chain of Mtb-FbiB (P9WP79 whole entry): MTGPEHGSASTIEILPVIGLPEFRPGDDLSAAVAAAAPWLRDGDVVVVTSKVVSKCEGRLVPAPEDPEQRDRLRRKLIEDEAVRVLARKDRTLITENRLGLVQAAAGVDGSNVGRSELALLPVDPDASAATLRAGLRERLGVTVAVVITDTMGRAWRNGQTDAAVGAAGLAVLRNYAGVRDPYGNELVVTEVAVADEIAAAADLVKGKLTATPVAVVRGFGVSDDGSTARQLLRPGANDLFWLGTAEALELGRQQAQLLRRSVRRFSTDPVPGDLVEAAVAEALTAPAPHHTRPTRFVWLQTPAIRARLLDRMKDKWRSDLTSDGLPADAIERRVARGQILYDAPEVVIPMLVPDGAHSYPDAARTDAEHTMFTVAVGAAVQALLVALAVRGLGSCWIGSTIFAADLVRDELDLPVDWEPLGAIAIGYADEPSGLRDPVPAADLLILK

Tm-DHFR = molecular target: T4, Tm-DHFR (Thermotoga maritima, UniProt Q60034); assay: 1H NMR of reaction; format: biochemical; conditions: 1 mM folate-2, 2 mM NADPH, pH 7.0, 37 °C; reduced to tetrahydrofolate-2
T4 construct: gene folA; synthesized ORF in pProEX-HTb, E. coli BL21(DE3) LOBSTR; TALON and SEC
T4 sequence (Q60034 1-169): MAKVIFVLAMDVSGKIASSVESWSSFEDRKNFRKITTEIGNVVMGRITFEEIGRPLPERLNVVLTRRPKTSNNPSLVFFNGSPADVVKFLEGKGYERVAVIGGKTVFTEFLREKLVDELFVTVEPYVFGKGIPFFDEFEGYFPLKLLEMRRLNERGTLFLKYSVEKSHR

SMILES: N[C@@H](CC[N+](=O)[O-])C(=O)O [4-nitro-L-2-aminobutyric acid, (2S)-2-Amino-4-nitrobutanoic acid]
- LC-MS of reaction products (hFPGS): acts as a substrate across all enzymes and both cofactors
- LC-MS of reaction products (Af-CofE): acts as a substrate across all enzymes and both cofactors
- LC-MS of reaction products (Mtb-FPGS): acts as a substrate across all enzymes and both cofactors
- LC-MS of reaction products (Mtb-FbiB): acts as a substrate across all enzymes and both cofactors

SMILES: Nc1nc2ncc(CNc3ccc(C(=O)N[C@@H](CCC(=O)N[C@@H](CCC(=O)O)C(=O)O)C(=O)O)cc3)nc2c(=O)[nH]1 [folate-2, pteroyldi-γ-L-glutamic acid]
- 1H NMR of reaction (Tm-DHFR): pre-incubation with Tm-DHFR initiated the production of tetrahydrofolate-2
- LC-MS of reaction products (Mtb-FPGS): addition of only a single L-glutamate molecule to afford folate-3 as the major product
